Source: ChEMBL document CHEMBL5331046, “Disulfiram and dithiocarbamate analogues demonstrate promising antischistosomal effects” (Eur J Med Chem, 2022)
Active and inactive are the calls of the source. The calls are words filed in the database; no cut-off is given here.

How the values were obtained:
LS174T [1] = assay: Cytotoxicity against human LS174T cells assessed as reduction in cell vaibility upto 50 uM by WST-1 assay; type: toxicity, cell-based
Schistosoma mansoni [2] = assay: Antischistosomal activity against Schistosoma mansoni couples at 5 uM measured upto 72 hrs by bright field microscopy; type: functional, organism-based
HepG2 [3] = assay: Cytotoxicity against human HepG2 cells assessed as reduction in cell viability upto 50 uM by WST-1 assay; type: toxicity, cell-based; conditions: hepg2, 50 µM
Schistosoma mansoni [4] = assay: Antischistosomal activity against Schistosoma mansoni couples assessed as decrease in parasite motility at 10 uM measured upto 72 hrs by bright field microscopy; type: functional, organism-based
Schistosoma mansoni [5] = assay: Antischistosomal activity against Schistosoma mansoni couples assessed as decrease in pairing stability at 5 uM measured upto 72 hrs by bright field microscopy; type: functional
Schistosoma mansoni [6] = assay: Antischistosomal activity against Schistosoma mansoni couples assessed as inhibition of eggs production at 5 uM measured upto 72 hrs by bright field microscopy; type: functional
Schistosoma mansoni [7] = assay: Antischistosomal activity against Schistosoma mansoni couples assessed as inhibition of eggs production at 25 uM measured upto 72 hrs by bright field microscopy; type: functional
Schistosoma mansoni [8] = assay: Antischistosomal activity against Schistosoma mansoni couples assessed as decrease in parasite vitality at 5 uM measured upto 72 hrs by bright field microscopy; type: functional, organism-based
Schistosoma mansoni [9] = assay: Antischistosomal activity against Schistosoma mansoni couples assessed as intestinal dilations and tegument damage at 25 uM measured upto 72 hrs by bright field microscopy; type: functional, organism-based
Schistosoma mansoni [10] = assay: Antischistosomal activity against Schistosoma mansoni couples assessed as gut dilations at 50 uM measured upto 72 hrs by bright field microscopy; type: functional, organism-based
Schistosoma mansoni [11] = assay: Antischistosomal activity against Schistosoma mansoni couples assessed as gut dilations at 25 uM measured upto 72 hrs by bright field microscopy; type: functional, organism-based
Schistosoma mansoni [12] = assay: Antischistosomal activity against Schistosoma mansoni couples assessed as tegument damage at 25 uM measured upto 72 hrs by bright field microscopy; type: functional, organism-based
Schistosoma mansoni [13] = assay: Antischistosomal activity against Schistosoma mansoni couples assessed as inhibition of eggs production at 50 uM measured upto 72 hrs by bright field microscopy; type: functional, organism-based
Schistosoma mansoni [14] = assay: Antischistosomal activity against Schistosoma mansoni couples assessed as intestinal dilations and tegument damage at 50 uM measured upto 72 hrs by bright field microscopy; type: functional, organism-based
Schistosoma mansoni [15] = assay: Antischistosomal activity against Schistosoma mansoni couples assessed as tegument damage at 50 uM measured upto 72 hrs by bright field microscopy; type: functional, organism-based
Schistosoma mansoni [16] = assay: Antischistosomal activity against Schistosoma mansoni couples assessed as reduction in pairing stability at 50 uM measured upto 72 hrs by bright field microscopy; type: functional, organism-based
Schistosoma mansoni [17] = assay: Antischistosomal activity against Schistosoma mansoni couples assessed as reduction in pairing stability at 25 uM measured upto 72 hrs by bright field microscopy; type: functional
Schistosoma mansoni [18] = assay: Antischistosomal activity against Schistosoma mansoni couples assessed as inhibition of eggs production at 100 uM measured upto 72 hrs by bright field microscopy; type: functional; design: scale not given: the % may be the effect or the level left
Schistosoma mansoni [19] = assay: Antischistosomal activity against Schistosoma mansoni couples assessed as pairing instability at 100 uM measured upto 72 hrs by bright field microscopy; type: functional
Schistosoma mansoni [20] = assay: Antischistosomal activity against Schistosoma mansoni couples assessed as gut dilatations at 10 uM measured upto 72 hrs by bright field microscopy; type: functional, organism-based
Schistosoma mansoni [21] = assay: Antischistosomal activity against Schistosoma mansoni couples assessed as decrease in parasite motility at 15 uM measured upto 72 hrs by bright field microscopy; type: functional; design: scale not given: the % may be the effect or the level left
HepG2 [22] = assay: Cytotoxicity against human HepG2 cells assessed as reduction in cell vaibility at 100 uM by WST-1 assay; type: toxicity, cell-based; conditions: hepg2, 100 µM
Schistosoma mansoni [23] = assay: Antischistosomal activity against Schistosoma mansoni couples assessed as tegument damage at <=10 uM measured upto 72 hrs by bright field microscopy; type: functional, organism-based
Schistosoma mansoni [24] = assay: Antischistosomal activity against Schistosoma mansoni couples assessed as induction of phenotypes at 10 uM measured upto 72 hrs by bright field microscopy; type: functional, organism-based
Schistosoma mansoni [25] = assay: Antischistosomal activity against Schistosoma mansoni couples assessed as inhibition of eggs production at 15 uM measured upto 72 hrs by bright field microscopy; type: functional; design: scale not given: the % may be the effect or the level left
Schistosoma mansoni [26] = assay: Antischistosomal activity against Schistosoma mansoni couples assessed as loss of internal structures at <=10 uM measured upto 72 hrs by bright field microscopy; type: functional, organism-based
Schistosoma mansoni [27] = assay: Antischistosomal activity against Schistosoma mansoni couples assessed as gut dilatations at <=10 uM measured upto 72 hrs by bright field microscopy; type: functional, organism-based
Schistosoma mansoni [28] = assay: Antischistosomal activity against Schistosoma mansoni couples assessed as loss of internal structures at 10 uM measured upto 72 hrs by bright field microscopy; type: functional, organism-based
Schistosoma mansoni [29] = assay: Antischistosomal activity against Schistosoma mansoni couples assessed as reduction in parasite motility at <=10 uM measured upto 72 hrs by bright field microscopy; type: functional; design: scale not given: the % may be the effect or the level left; conditions: up to 10 µM
LS174T [30] = assay: Cytotoxicity against human LS174T cells assessed as reduction in cell viability at 100 uM by WST-1 assay; type: toxicity, cell-based
Schistosoma mansoni [31] = assay: Antischistosomal activity against Schistosoma mansoni couples assessed as decrease in parasite vitality at 15 uM measured upto 72 hrs by bright field microscopy; type: functional; design: scale not given: the % may be the effect or the level left
Schistosoma mansoni [32] = assay: Antischistosomal activity against Schistosoma mansoni couples assessed as decrease in pairing stability at 15 uM measured upto 72 hrs by bright field microscopy; type: functional; design: scale not given: the % may be the effect or the level left
Schistosoma mansoni [33] = assay: Antischistosomal activity against Schistosoma mansoni couples assessed as tegument damage at 10 uM measured upto 72 hrs by bright field microscopy; type: functional, organism-based
Schistosoma mansoni [34] = assay: Antischistosomal activity against Schistosoma mansoni couples assessed as inhibition of eggs production at <25 uM measured upto 72 hrs by bright field microscopy; type: functional, organism-based
Schistosoma mansoni [35] = assay: Antischistosomal activity against Schistosoma mansoni couples assessed as decrease in parasite motility at 50 uM measured upto 72 hrs by bright field microscopy; type: functional; design: scale not given: the % may be the effect or the level left
Schistosoma mansoni [36] = assay: Antischistosomal activity against Schistosoma mansoni couples assessed as decrease in parasite vitality at 25 uM measured upto 72 hrs by bright field microscopy; type: functional, organism-based
Schistosoma mansoni [37] = assay: Antischistosomal activity against Schistosoma mansoni couples assessed as decrease in parasite motility at <25 uM measured upto 72 hrs by bright field microscopy; type: functional, organism-based
Schistosoma mansoni [38] = assay: Antischistosomal activity against Schistosoma mansoni couples assessed as decrease in parasite motility at 25 uM measured upto 72 hrs by bright field microscopy; type: functional
Schistosoma mansoni [39] = assay: Antischistosomal activity against Schistosoma mansoni couples assessed as decrease in mating stability <25 uM measured upto 72 hrs by bright field microscopy; type: functional, organism-based
Schistosoma mansoni [40] = assay: Antischistosomal activity against Schistosoma mansoni couples assessed as lethality to parasites at 100 uM measured upto 72 hrs by bright field microscopy; type: functional, organism-based
Schistosoma mansoni [41] = assay: Antischistosomal activity against Schistosoma mansoni couples assessed as tegument damage at 100 uM measured upto 72 hrs by bright field microscopy; type: functional, organism-based
Schistosoma mansoni [42] = assay: Antischistosomal activity against Schistosoma mansoni couples assessed as couple separation at 25 uM measured upto 72 hrs by bright field microscopy; type: functional, organism-based
Schistosoma mansoni [43] = assay: Antischistosomal activity against Schistosoma mansoni couples assessed as tissue structural changes at 25 uM measured upto 72 hrs by bright field microscopy; type: functional, organism-based
Schistosoma mansoni [44] = assay: Antischistosomal activity against Schistosoma mansoni couples at 100 uM measured upto 72 hrs by bright field microscopy; type: functional, organism-based

With `CCN(CC)C(=S)SCc1cc(=O)oc2cc(OC)ccc12` as the compound, how does the Activity (LS174T [1]) read?
Its Activity is “Non-Toxic”.

What about the Activity (Schistosoma mansoni [2]) of the same compound?
Its Activity is “Active”.

What about the Activity (HepG2 [3]) of the same compound?
The Activity was “Non-Toxic”.

How did the Activity (Schistosoma mansoni [4]) turn out when `CCN(CC)C(=S)SCc1ccc([N+](=O)[O-])cc1` was run?
Its Activity is “Active”.

And the Activity (Schistosoma mansoni [5])?
The Activity was “Active”.

And the Activity (Schistosoma mansoni [6])?
Its Activity is “Active”.

What about the Activity (Schistosoma mansoni [7]) of the same compound?
Its Activity is “Active”.

What about the Activity (Schistosoma mansoni [8]) of the same compound?
Its Activity is “Active”.

And the Activity (Schistosoma mansoni [9])?
Its Activity is “Active”.

What about the Activity (Schistosoma mansoni [10]) of the same compound?
Its Activity is “Active”.

And the Activity (Schistosoma mansoni [11])?
The Activity was “Active”.

And the Activity (Schistosoma mansoni [12])?
Its Activity is “Active”.

What about the Activity (Schistosoma mansoni [13]) of the same compound?
Its Activity is “Active”.

And the Activity (Schistosoma mansoni [14])?
Its Activity is “Active”.

And the Activity (Schistosoma mansoni [15])?
The Activity was “Active”.

And the Activity (Schistosoma mansoni [16])?
Its Activity is “Active”.

And the Activity (Schistosoma mansoni [17])?
The Activity was “Active”.

Which Activity (Schistosoma mansoni [18]) does the source give for `CCN(CC)C(=S)SCCN1CCCCC1` here?
Its Activity is >80%.

What about the Activity (Schistosoma mansoni [5]) of the same compound?
The Activity was 100%.

What about the Activity (Schistosoma mansoni [19]) of the same compound?
Its Activity is 100%.

What does the source list for `O=[N+]([O-])c1ccc(CSC(=S)N2CCN(S(=O)(=O)c3ccccc3)CC2)cc1`?
Activity (Schistosoma mansoni [20]): Active; Activity (Schistosoma mansoni [21]): 50%; Activity (HepG2 [22]): Toxic; Activity (Schistosoma mansoni [4]): Active; Activity (Schistosoma mansoni [23]): inactive; Activity (Schistosoma mansoni [24]): Active; Activity (Schistosoma mansoni [25]): 40%; Activity (Schistosoma mansoni [26]): inactive; Activity (Schistosoma mansoni [27]): inactive; Activity (Schistosoma mansoni [28]): Active; Activity (Schistosoma mansoni [29]): 50%; Activity (LS174T [30]): Toxic; Activity (Schistosoma mansoni [31]): 90%; Activity (Schistosoma mansoni [32]): 20%; Activity (Schistosoma mansoni [33]): Active

With `CCN(CC)C(=S)SCc1cc([N+](=O)[O-])ccc1O` as the compound, how does the Activity (Schistosoma mansoni [34]) read?
The Activity was “inactive”.

And the Activity (Schistosoma mansoni [35])?
Its Activity is >60%.

What about the Activity (Schistosoma mansoni [36]) of the same compound?
Its Activity is “inactive”.

And the Activity (Schistosoma mansoni [7])?
Its Activity is “>=90%”.

What about the Activity (Schistosoma mansoni [37]) of the same compound?
The Activity was “inactive”.

And the Activity (Schistosoma mansoni [38])?
The Activity was “inactive”.

What about the Activity (Schistosoma mansoni [39]) of the same compound?
The Activity was “inactive”.

And the Activity (Schistosoma mansoni [40])?
The Activity was “Active”.

And the Activity (Schistosoma mansoni [17])?
Its Activity is “>=90%”.

And the Activity (Schistosoma mansoni [41])?
The Activity was “Active”.

Which results are given for `CCN(CC)C(=S)SCc1ccc(SC)cc1`?
Activity (Schistosoma mansoni [10]): Active; Activity (LS174T [1]): Non-Toxic; Activity (Schistosoma mansoni [13]): Active; Activity (Schistosoma mansoni [14]): Active; Activity (Schistosoma mansoni [15]): Active; Activity (Schistosoma mansoni [16]): Active; Activity (HepG2 [3]): Non-Toxic

What does the source list for `CN(C)CCN1CCN(C(=S)SCc2ccc([N+](=O)[O-])cc2)CC1`?
Activity (HepG2 [22]): Toxic; Activity (Schistosoma mansoni [36]): Active; Activity (Schistosoma mansoni [7]): Active; Activity (Schistosoma mansoni [38]): 55%; Activity (Schistosoma mansoni [42]): Active; Activity (Schistosoma mansoni [43]): Active; Activity (Schistosoma mansoni [11]): Active; Activity (LS174T [30]): Toxic; Activity (Schistosoma mansoni [44]): Active
